These results are taken from patent US11090304B2 (Amgen Inc., priority 2018, dated 2021).

The term IC50 denotes the midpoint of a concentration-inhibition curve.

For assay [1], the target named is GDP-bound KRAS protein (aa 1-169), containing both G12C and C118A amino acid substitutions (Homo sapiens, UniProt P01116, C118A/G12C). The experiment in a line: Coupled nucleotide exchange assay (SOS-mediated, AlphaScreen). The note with it: for Coupled exchange IC50 (5 min): 5 min compound pre-incubation. The format is biochemical.
GDP-bound KRAS protein (aa 1-169), containing both G12C and C118A amino acid substitutions, sequence (P01116 1-169 isoform P01116-2 G12C/C118A): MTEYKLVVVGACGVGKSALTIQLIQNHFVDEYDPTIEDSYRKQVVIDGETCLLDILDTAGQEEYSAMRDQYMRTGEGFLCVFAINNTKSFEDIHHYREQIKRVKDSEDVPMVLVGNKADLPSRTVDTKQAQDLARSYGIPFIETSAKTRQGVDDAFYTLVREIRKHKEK
In assay [2] the test system is Phosphorylation of ERK1/2 in MIA PaCa-2 cells. The experiment in a line: Phospho-ERK1/2 MSD assay in MIA PaCa-2 cells. It is filed as cell-based. As to conditions: Homo sapiens, MIA PaCa-2, 2 h, read-out: p-ERK IC50 (2 h; MIA PaCa-2), 2 h compound treatment. The gist of the method: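 In the procedure, cells were plated a day ahead at 25,000 per well. Next, a dilution series of compound in growth medium was added for 2 or 4 h. EGF (10 ng/mL) stimulation for 10 min preceded washing and RIPA lysis. Lysate phospho-ERK1/2 was read by MSD, with IC50 derived by 4-parameter logistic analysis.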

Assay [3] relates to Phosphorylation of ERK1/2 in A549 cells. The experiment in a line: Phospho-ERK1/2 MSD assay in A549 cells. The format is cell-based. As to conditions: Homo sapiens, A549, 2 h, read-out: p-ERK IC50 (2 h; A549), 2 h compound treatment. Here is the method:
For compounds in Table 89, the following assay conditions were employed:
Phospho-ERK1/2 MSD Assay:
Sixteen hours prior to compound treatment, MIA PaCa-2 or A549 cells were seeded in 96-well cell culture plates at a density of 25,000 cells/well and incubated at 37° C., 5% CO2. A compound dose-response titration was diluted in growth media, added to appropriate wells of a cell culture plate, and then incubated at 37° C., 5% CO2 for 2 or 4 hours (see Table 15). Following compound treatment, cells were stimulated with 10 ng/mL EGF (Roche 11376454001) for 10 min, washed with ice-cold Dulbecco's phosphate-buffered saline, no Ca^2+ or Mg^2+ (ThermoFisher Scientific 14190144), and then lysed in RIPA buffer (50 mM Tris-HCl pH 7.5, 1% Igepal, 0.5% sodium deoxycholate, 150 mM NaCl, and 0.5% sodium dodecyl sulfate) containing protease inhibitors (Roche 4693132001) and phosphatase inhibitors (Roche 4906837001). Phosphorylation of ERK1/2 in compound-treated lysates was assayed using Phospho-ERK1/2 Whole Cell Lysate kits (Meso Scale Discovery K151DWD) according to the manufacturer's protocol. Assay plates were read on a Meso Scale Discovery Sector Imager 6000, and data were analyzed using a 4-parameter logistic model to calculate IC50 values.

Where only a bound is given, the exact number is not on record here.

Regarding `C=CC(=O)N1CCN(c2nc(=O)n(-c3ccccc3C3CCC3)c3nc(-c4ccccc4F)c(Cl)cc23)[C@@H](C)C1` [Example 54-12, 6-chloro-1-(2-cydobutyl-phenyl)-7-(2-fluorophenyl)-4-((2S)-2-methyl-4-(2-propenoyl)-1-piperazinyl) pyrido[2,3-d]pyrirnidin-2(1H)-one], the “Coupled exchange IC50 (5 min)” value in assay [1] is given as 0.289 | nda μM. Besides, the IC50 was 162 nM in assay [2] and at least 10000 nM in assay [3].
For the compound `C=CC(=O)N1CCN(c2nc(=O)n(-c3nccn3C(C)C)c3nc(-c4c(O)cccc4F)c(Cl)cc23)[C@@H](C)C1` [Example 54-13, 6-chloro-7-(2-fluoro-6-hydroxy-phenyl)-4-((2S)-2-methyl-4-(2-propenoyl)-1-piperazinyl)-1-(1-(2-propanyl)-1H-imidazol-2-yl)pyrido[2,3-d]pyrimidin-2(1H)-one], in assay [1], the “Coupled exchange IC50 (5 min)” value is on record as 0.811 | nda μM. For the same compound, the IC50 in assay [2] was 2560 nM; in assay [3], at least 10000 nM.
Take `C=CC(=O)N1CCN(c2nc(=O)n(-c3c(CC)cccc3CC)c3nc(-c4ccccc4C4CC4)c(Cl)cc23)[C@@H](C)C1` [Example 54-22, 6-chloro-7-(2-cyclopropyl-phenyl)-1-(2,6-diethyl-phenyl)-4-((2S)-2-methyl-4-(2-propenoyl)-1-piperazinyl) pyrido[2,3-d]pyrimidin-2(1H)-one]: the “Coupled exchange IC50 (5 min)” value in assay [1] turned out to be 0.347 µM. Moreover, the “Coupled exchange IC50 (2 h)” value in assay [1] (2 h compound pre-incubation) came to 97 nM. For the same compound, the IC50 in assay [2] was 245 nM; in assay [3] it was at least 33300 nM.
As to `C=CC(=O)N1CCN(c2nc(=O)n(-c3c(CC)cccc3CC)c3nc(-c4ccccc4C(C)C)c(Cl)cc23)[C@@H](C)C1` [Example 54-23, 6-chloro-1-(2,6-diethylphenyl)-4-((2S)-2-methyl-4-(2-propenoyl)-1-piperazinyl)-7-(2-(2-propanyl)phenyl)pyrido [2,3-d]pyrimidin-2(1H)-one], the “Coupled exchange IC50 (5 min)” value in assay [1] is given as 0.103 | nda μM. Also, the IC50 in assay [2] was 122 nM; in assay [3], at least 10000 nM.
With `C=CC(=O)N1CCN(c2nc(=O)n(-c3nocc3C3CC3)c3nc(-c4c(O)cccc4F)c(Cl)cc23)[C@@H](C)C1` [Example 54-24, 6-chloro-1-(4-cyclopropyl-1,2-oxazol-3-yl)-7-(2-fluoro-6-hydroxyphenyl)-4-((2S)-2-methyl-4-(2-propenoyl)-1-piperazinyl) pyrido[2,3-d]pyrimidin-2(1H)-one], the “Coupled exchange IC50 (5 min)” value in assay [1] is on record as 0.797 | nda μM. The IC50 is 942 nM in assay [2] and at least 10000 nM in assay [3].
The matching figures for `C=CC(=O)N1CCN(c2nc(=O)n(-c3c(Cl)cccc3Cl)c3nc(-c4ccccc4F)c(Cl)cc23)[C@@H](C)C1` [Example 54-30, 6-chloro-1-(2,6-dichlorophenyl)-7-(2-fluorophenyl)-4-((2S)-2-methyl-4-(2-propenoyl)-1-piperazinyl) pyrido[2,3-d]pyrimidin-2(1H)-one]: 0.824 | nda μM, 453 nM and at least 10000 nM.
As to `C=CC(=O)N1CCN(c2nc(=O)n(-c3ccccc3CC)c3nc(-c4ccccc4F)c(Cl)cc23)[C@@H](C)C1` [Example 54-31, 6-chloro-1-(2-ethylphenyl)-7-(2-fluorophenyl)-4-((2S)-2-methyl-4-(2-propenoyl)-1-piperazinyl) pyrido[2,3-d]pyrimidin-2(1H)-one], in assay [1], the “Coupled exchange IC50 (5 min)” value was 0.395 | nda μM. The values for the IC50 in assay [2] and in assay [3] were 237 nM and at least 10000 nM, respectively.
The like results for `C=CC(=O)N1CCN(c2nc(=O)n(-c3ccccc3Cl)c3nc(-c4ccccc4F)c(Cl)cc23)[C@@H](C)C1` [Example 54-32, 6-chloro-1-(2-chlorophenyl)-7-(2-fluorophenyl)-4-((2S)-2-methyl-4-(2-propenoyl)-1-piperazinyl) pyrido[2,3-d]pyrimidin-2(1H)-one] were, in that order, 1.963 | nda μM, 796 nM and at least 10000 nM.
